According to patent US8785425B2, “11β-hydroxyandrosta-4-ene-3-ones” (Sun Pharma Advanced Research Company Ltd., priority 2006, dated 2014):
Marks after values point to notes of the source that are not given here.

What was measured:
glucocorticoid receptors = target: T1, glucocorticoid receptors (Homo sapiens, UniProt P04150); assay: Glucocorticoid receptor binding assay ([3H]dexamethasone radioligand); settings: HeLa cells transfected with glucocorticoid receptors; for inhibition at 0.1 µM: % inhibition at 100 nM
T1 construct: host or cells: Human HeLa cells
T1 sequence (P04150 1-777): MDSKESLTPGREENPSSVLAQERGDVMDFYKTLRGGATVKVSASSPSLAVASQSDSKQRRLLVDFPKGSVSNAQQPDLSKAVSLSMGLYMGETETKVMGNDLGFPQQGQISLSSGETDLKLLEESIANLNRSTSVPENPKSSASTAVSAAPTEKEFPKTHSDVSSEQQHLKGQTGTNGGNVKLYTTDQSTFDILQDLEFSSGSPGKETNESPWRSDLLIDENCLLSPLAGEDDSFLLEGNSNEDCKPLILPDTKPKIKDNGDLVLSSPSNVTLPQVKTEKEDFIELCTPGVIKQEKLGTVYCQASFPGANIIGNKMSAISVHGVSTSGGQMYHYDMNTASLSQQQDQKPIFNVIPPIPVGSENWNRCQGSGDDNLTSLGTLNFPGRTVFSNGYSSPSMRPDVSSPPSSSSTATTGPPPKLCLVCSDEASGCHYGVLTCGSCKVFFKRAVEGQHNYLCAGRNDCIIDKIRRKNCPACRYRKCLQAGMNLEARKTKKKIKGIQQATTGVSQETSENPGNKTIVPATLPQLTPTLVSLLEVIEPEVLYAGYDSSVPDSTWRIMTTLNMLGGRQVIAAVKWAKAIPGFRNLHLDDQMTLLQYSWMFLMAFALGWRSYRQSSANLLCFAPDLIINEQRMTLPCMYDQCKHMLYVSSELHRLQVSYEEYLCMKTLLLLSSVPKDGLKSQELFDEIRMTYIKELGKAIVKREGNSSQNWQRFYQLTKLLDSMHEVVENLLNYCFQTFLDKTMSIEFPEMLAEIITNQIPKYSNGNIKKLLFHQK
Method: The steroid receptor binding assay were performed by MDS Pharma Services at their Taipei (Taiwan) pharmacology laboratory.
The activity of test compounds on glucocorticoid receptor was assessed using radioligand binding assays. […] Free [^3H]dexamethasone was removed from the medium by centrifugation and concentration of receptor bound ligand was determined in the supernatant by liquid scintillation counting.
The % inhibition was evaluated using a single concentration of test compound and the corresponding radiolabeled ligand. Results are presented as the percent inhibition of specific binding. The values are average of duplicate determinations for each concentration.

in vivo = settings: SD, rat, thymus, other: intratracheal
Method: (§1) Sephadex G-200 was prepared in sterile saline (10 mg/ml) and allowed to swell for at least 3 days at room temperature. Test compounds were prepared as suspensions by grinding and sonicating the solid in chilled saline. All the compounds were administered intratracheally at 24 hrs and 2 hrs prior to intratracheal administration of Sephadex (5 mg/kg) under light ether anesthesia. Vehicle control animals were administered vehicle instead of Sephadex. At 24 hr after Sephadex instillation, lung and thymus were excised from individual animals and weighed. Wet weight of lung and thymus was corrected for 100 g of initial body weight. The percentage increase in lung weight caused by Sephadex and its inhibitions by the compounds, were calculated. The percentage inhibitions of thymus compared to vehicle control group were also calculated.

[1] = system: Sephadex induced lung edema; assay: animal or person
Method: as §1

[2] = system: liver glycogen deposition; assay type: in vivo, Male Sprague Dawley rats; settings: 3 mg/kg intratracheally, 2 doses 24 hrs apart, adrenalectomized rats
Method: Male Sprague Dawley rats, weighing 190-220 g were bilaterally adrenalectomized and maintained on 0.9% saline solution throughout the experiment. On day 5th and 6th of adrenalectomy, animals were made into different groups, test compounds prepared in cold saline (sonicated for 30 min) were instilled intratracheally 2 doses@3 mg/kg, 24 hrs apart. At 15 hrs after the last treatment, animals were sacrificed and livers were excised and weighed. The glycogen content of the livers was determined by anthrone method. Briefly, a weighed quantity of liver tissue was homogenized with 5% trichloroacetic acid, supernatant mixed with ethanol and kept overnight for precipitation. The glycogen thus extracted was estimated as glucose generated after acid hydrolysis by addition of anthrone reagent at 620 nm. Glycogen content was expressed as mg/100 g liver.

[3] = system: croton oil induced ear edema; assay: Croton oil ear edema; assay type: in vivo, Mice (male, CD-1); settings: inhibition at 1.6 μg, applied to ear, mice
Method: Mice (male, CD-1) were made into different groups. Test compounds were dissolved in pyridine-water-acetone (4:2:14) solution […] of compound or vehicle solution was applied to the left ear of the mice. The right ear of each mouse was applied simultaneously with 10 μl of pyridine:water:acetone (4:2:14) solution. After 2 hrs of compound or vehicle application, 10 μl of croton oil solution was applied to the left ear of all animals. After 6 hr of croton oil treatment the animals were sacrificed; ears were excised and weighed separately.

[4] = system: cotton pellet induced granuloma; assay: Cotton pellet granuloma (compound impregnated in pellet); assay type: in vivo; settings: dose 1000 mcg per pellet, SD rats
Method: SD rats were used for assessing anti-inflammatory activity of test compound using cotton pellet granuloma method. Sterilized cotton pellets weighing 20 mg were prepared. Test compounds were dissolved in acetone so as to get the required quantity for each cotton pellet in 500 μl. Different pellets were impregnated with 500 μl of acetone to contain required quantity of test compounds and allowed to dry. Vehicle control pellets were impregnated with 500 μl acetone. Rats were made into different groups. Two cotton pellets were surgically implanted into the scapular region of each rat. On sixth day of such implantation, pellets along with granuloma were taken out. Thymus gland was also separated from each animal and weighed. The pellets with granuloma were dried for 20 hrs at 60° C. and weighed. Mean weights of dry granuloma and thymus, body weight gain/100 g body weights were calculated.

[5] = system: cotton pellet granuloma (blank cotton pellet); assay: Assessment of systemic activity by i.v. route (blank cotton pellet granuloma); assay type: in vivo; settings: dose 1600 mcg (for 3 days), male SD rats
Method: For assessing systemic side effect on i.v. administration, cotton pellet granuloma assay (blank cotton pellet) in male SD rats was undertaken. Sterilized cotton pellets weighing 20 mg were surgically implanted into the scapular region on both sides. Starting from next day of implantation, compounds dissolved in Pharmasove (Pharmasolve 66.67% in saline) or vehicle were administered intravenously at 1.6 mg/kg dose for 3 successive days. On fifth day of implantation, pellets along with granuloma were taken out. The thymus gland was also separated from each animal and weighed. The pellets with granuloma were dried for 20 hrs at 60° C. and weighed. Mean weights of dry granuloma and thymus and body weight gain/100 g body weights were compared with vehicle control groups.

[6] = dose 3000 mcg/kg intratracheally, SD rat

| Compound | % Inhibition of thymus [2] | Glycogen content [2] | Mean % Inhibition (croton oil ear edema) [3] | Mean % Inhibition of Granuloma [4] | Thymus wt. (% Decrease) [4] | Mean Inhibition of Granuloma (%) [5] | inhibition at 0.1 µM (glucocorticoid receptors) | other results |
| --- | --- | --- | --- | --- | --- | --- | --- | --- |
| CCCC1O[C@@H]2C[C@H]3[C@@H]4CCC5=CC(=O)C=C[C@]5(C)[C@H]4[C@@H](O)C[C@]3(C)[C@]2(C(=O)CO)O1 (stereo partly drawn) [Budesonide, (11β,16α)-16,17-[Butylidenebis(oxy)]-11,21-dihydroxypregna-1,4-diene-3,20-dione] | 65.02% | 552.77 mg/100 g liver | – | – | – | – | – | inhibition at 0.01 µM (glucocorticoid receptors; % inhibition at 10 nM): 85%; ED50 at 24 h (in vivo): 0.68 mg/kg; ED50 ([1]; Rattus norvegicus, inhaled or nasal, read-out: ED50 Lung edema): 0.101 mg/kg; Mean % inhibition Lung edema [1, 6]: 119.38%; Mean % inhibition Thymus [1, 6]: 67.08% |
| C[C@@H]1C[C@H]2[C@@H]3CCC4=CC(=O)C=C[C@]4(C)[C@@]3(F)[C@@H](O)C[C@]2(C)[C@@]1(O)C(=O)CO [Dexamethasone, 16α-methyl-9α-fluoro-1,4-pregnadiene-11β,17α,21-triol-3,20-dione, reference compound] | – | – | 50.05^a % | 44.73% | 68.66% | – | – | – |
| CCC(=O)O[C@]1(C(=O)SCF)[C@H](C)C[C@H]2[C@@H]3C[C@H](F)C4=CC(=O)C=C[C@]4(C)[C@@]3(F)[C@@H](O)C[C@@]21C [Fluticasone propionate, (S)-fluoromethyl 6α,9α-difluoro-11β-hydroxy-16α-methyl-17α-propionyloxy-3-oxoandrosta-1,4-diene-17β-carbothioate, reference compound] | 70.17% | 1514.65 mg/100 g liver | 81.09^a % | 75.03% | 82.36% | 55.62% | – | ED50 Lung edema ([1]; i.t., Sephadex lung edema model in SD rat): 0.086 mg/kg; ED50 Thymus ([1]; i.t., thymus involution, Sephadex lung edema model in SD rat): 0.36 mg/kg; Mean Thymus wt. Decrease (%) [5]: 75.71% |
| CCC(=O)O[C@]1(C(=O)SOCF)[C@H](C)CC2C3C[C@H](F)C4=CC(=O)C=C[C@]4(C)[C@@]3(F)[C@@H](O)C[C@@]21C (stereo partly drawn) [IC.3, 6α,9α-Difluoro-11β-hydroxy-16α-methyl-3-oxo-17α-propionyloxyandrosta-1,4-diene-17β-carbonylsulfenic acid fluoromethyl ester] | – | −11.34 mg/100 g liver | – | – | – | 12.09% | 72% | – |
| C[C@@H]1CC2C3C[C@H](F)C4=CC(=O)C=C[C@]4(C)[C@@]3(F)[C@@H](O)C[C@]2(C)[C@@]1(OC(=O)c1ccco1)C(=O)SOCc1ccc(F)cc1 (stereo partly drawn) [IC.5, 6α,9α-Difluoro-17α-[(2-furanylcarbonyl)oxy]-11β-hydroxy-16α-methyl-3-oxoandrosta-1,4-diene-17β-carbonylsulfenic acid (4-fluorophenyl)methyl ester] | – | – | – | – | – | −22.20% | 75% | – |
